Source: patent publication US4962203A, “2-substituted quinolines useful as leukotriene antagonists” (Merck Frost Canada, Inc., priority 1989, dated 1990)

Assays:
[1] = system: guinea pig ileum (LTD4 induced contractions); assay: Guinea-pig ileum assay: inhibition of LTD4 induced contractions; parameters: species or system male Hartley strain guinea pigs; conditions: for inhibition at 0.01 µg/mL / inhibition at 0.1 µg/mL / inhibition at 1 µg/mL / inhibition at 10 µg/mL / inhibition at 0.001 µg/mL: Cavia porcellus, LTD4 0.3 ng/mL, read-out: % inhibition of LTD4 induced contractions, G.P. ileum assay; for inhibition at 0.01 µg/mL: drug conc. 0.01 μg/mL; for inhibition at 0.1 µg/mL: drug conc. 0.1 μg/mL; for inhibition at 1 µg/mL: drug conc. 1 μg/mL; for inhibition at 10 µg/mL: drug conc. 10 μg/mL; for inhibition at 0.001 µg/mL: drug conc. 0.001 μg/mL; for ability to inhibit LTD4 contractions of the guinea pig ileum, times greater than the reference compound: relative to the reference compound of Table I
Method: Guinea-Pig Ileum Preparation for Evaluation of Antagonists of Leukotriene D4 and Other Mediators
Tissue--Sections of ileum were taken from male Hartley strain guinea pigs (Charles River, U.S.A.) 300 to 500 g which were sacrificed by a blow to the head and exsanguinated. Terminal ileum was removed, cleaned with warm Tyrode's solution and then divided into segments of approximately […]. The segments of ileum were then mounted under 1 g tension in a 20 mL organ bath containing 10 mL of Tyrode's solution with the following composition (mM): NaCl, 137; KCl, 2.7; MgSO4, 7H2 O, 0.8; CaCl2, 1.8; NaH2 PO4, 0.42; NaHCO3, 11.9; Dextrose, 5.6. The bathing solution was continuously aerated with 95% O2 and 5% CO2 and bath temperature was maintained at 37° C. The beta adrenoceptor blocker, timolol (0.5 μg/mL) and the antimuscarinic agent atropine (1.0 μM) were present in the Tyrodeμs solution. Isometric tension changes were recorded using Grass FTO3 force displacement transducers (Grass Instrument G., Quincy, Mass.) connected to a Beckman Type R Dynograph. In order to wash the tissue, the bath solution was automatically aspirated and replaced with a constant volume (10 mL) of fresh solution by means of timer controlled solenoid valves.
After the tissues were stable a standard dose of LTD4 (0.3 ng/mL) was repeatedly added to the bath every 4-5 minutes (min contact, 30 sec wash, 3 min rest) until a consistent response was obtained (minimum of 4 responses). Following each addition of LTD4 the tissue was washed with Tyrode's solution until baseline tension was re-established. After consistent responses were obtained the tissues were used to screen compounds.
Usually, 10 μL of a 10 mg/mL solution of the compound to be tested was added to the bath 30 secs prior to the addition of LTD4. The compound and LTD4 remained in contact with the tissue until the maximum tension was developed (1 min) after which the tissue was washed repeatedly until the baseline was re-established. Percent inhibition relative to the immediately preceding control response was calculated for each dose of test compound. […] Provided the response was inhibited by less than 20%, the tissue was used immediately to evaluate another compound; when the response was inhibited by greater than 20%, cycles of LTD4 alone were added until a consistent response was re-established.

LTD4 binding = target: T1, LTD4 binding (Cavia porcellus, UniProt Q2NNR5); assay: LTD4 binding assay; conditions: for IC50: 50% LTD4 bound, unit inferred, read-out: LTD4 binding assay, drug conc. (IC50 values for the numbered examples); for LTD4 binding activity, times greater than the reference compound: relative to the reference compound of Table I
T1 construct: from tissue
T1 sequence (Q2NNR5 1-340): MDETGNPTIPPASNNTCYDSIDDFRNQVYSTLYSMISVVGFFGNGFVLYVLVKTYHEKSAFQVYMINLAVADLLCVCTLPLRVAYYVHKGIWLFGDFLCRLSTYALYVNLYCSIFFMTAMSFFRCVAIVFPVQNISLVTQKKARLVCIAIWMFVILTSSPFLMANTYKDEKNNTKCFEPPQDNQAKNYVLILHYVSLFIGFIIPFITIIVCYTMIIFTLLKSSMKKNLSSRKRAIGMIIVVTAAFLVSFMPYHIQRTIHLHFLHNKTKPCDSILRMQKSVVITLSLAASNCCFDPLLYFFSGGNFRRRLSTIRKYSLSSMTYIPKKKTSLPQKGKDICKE
Method: The results for LTD4 binding were determined by the method of S. S. Pong and R. N. DeHaven, Proc. Nat. Acad. Sci. U.S.A., 80, 7415-7419 (1983).
The drug concentration in the LTD4 binding assay for the numbered examples are the IC50 values. The LTD4 binding activity of these ranges from at least 14 (Ex. 85) to at least 214 (Ex. 71) times greater than the reference compound. The actual differences are even greater since an IC50 was not obtained for the reference compound.

## CC(Oc1cccc(C2CC2c2ccc3ccc(Cl)cc3n2)c1)c1nn[nH]n1 (stereo not drawn)
[1]
  inhibition at 0.01 µg/mL: 37%
  inhibition at 0.1 µg/mL: 87%
  inhibition at 1 µg/mL: 96%
  inhibition at 10 µg/mL: 94%
LTD4 binding; at the drug conc. (IC50)
  % LTD4 bound, LTD4 binding assay: 50%

## CC(Oc1cccc(C#Cc2ccc3ccc(Br)cc3n2)c1)C(=O)O (stereo not drawn)
[1]
  inhibition at 0.001 µg/mL: 50%
  inhibition at 0.01 µg/mL: 91%
  inhibition at 0.1 µg/mL: 94%
  inhibition at 1 µg/mL: 98%
  inhibition at 10 µg/mL: 97%
LTD4 binding
  IC50: 96 nM
LTD4 binding; at the drug conc. (IC50)
  % LTD4 bound, LTD4 binding assay: 50%

## CC(Oc1cccc(Sc2ccc3ccc(Cl)cc3n2)c1)C(=O)O (stereo not drawn) [reference compound]
[1]
  inhibition at 1 µg/mL: 27%
  inhibition at 10 µg/mL: 89%
LTD4 binding; reference compound, drug conc. 3 × 10^-6 (unit not given)
  % LTD4 bound, LTD4 binding assay: 76%

## CC(Oc1cccc(/C=C/c2ccc3ccc(Cl)cc3n2)c1)C(=O)O (stereo not drawn)
[1]
  inhibition at 0.001 µg/mL: 38%
  inhibition at 0.01 µg/mL: 94%
  inhibition at 0.1 µg/mL: 95%
  inhibition at 1 µg/mL: 97%
  inhibition at 10 µg/mL: 94%
LTD4 binding; at the drug conc. (IC50)
  % LTD4 bound, LTD4 binding assay: 50%

## CC(Oc1cccc(/C=C/c2ccc3ccc(Cl)cc3n2)c1)c1nn[nH]n1 (racemic) [Example 71, 5-(1-(3-(2-(7-chloroquinolin-2-yl)ethenyl)-phenoxy)ethyl)tetrazole]
[1]
  inhibition at 0.001 µg/mL: 67%
  inhibition at 0.01 µg/mL: 92%
  inhibition at 0.1 µg/mL: 100%
  inhibition at 1 µg/mL: 98%
  inhibition at 10 µg/mL: 97%
  ability to inhibit LTD4 contractions of the guinea pig ileum, times greater than the reference compound: over 1000 times
LTD4 binding
  IC50: 14 nM
  LTD4 binding activity, times greater than the reference compound: at least 214 times
LTD4 binding; at the drug conc. (IC50)
  % LTD4 bound, LTD4 binding assay: 50%

## CC(Oc1cccc(OCc2ccc3ccc(Br)cc3n2)c1)C(=O)O (stereo not drawn) [Example 85, 2-(3-(7-bromoquinolin-2-ylmethoxy)phenoxy)propanoic acid]
[1]
  inhibition at 0.001 µg/mL: 0%
  inhibition at 0.01 µg/mL: 10%
  inhibition at 0.1 µg/mL: 57%
  inhibition at 1 µg/mL: 93%
  inhibition at 10 µg/mL: 100%
  ability to inhibit LTD4 contractions of the guinea pig ileum, times greater than the reference compound: about 20 times
LTD4 binding
  IC50: 220 nM
  LTD4 binding activity, times greater than the reference compound: at least 14 times
LTD4 binding; at the drug conc. (IC50)
  % LTD4 bound, LTD4 binding assay: 50%
